Source: patent US20190167711A1, “METHODS FOR DIAGNOSIS AND TREATMENT OF ACUTE LYMPHOBLASTIC LEUKEMIA” (MOR RESEARCH APPLICATIONS LTD., priority 2014, published 2019)

Key:
Type in all cases: cell-based
[1] = tested on: NAMPT; experiment: Western blot of NAMPT in transfected NALM-6 cells; conditions: NALM-6 transient
From the text: (§1) Protein was extracted from NALM-6 cell line using Qproteome™ lysis buffer (Qiagen, Hilden, Germany). The membrane was then probed with one or more of the following antibodies: anti-disintegrin and metalloproteinase domain-containing protein 10 (ADAM10) (1:1000) (Abcam; Cambridge, UK) (see Example 9); anti-chemokine C-X-C motif 16 (CXCL16) (1:1000); anti-NAMPT (1:1000); and anti-GAPDH (1:5000) (Santa Crus Biotechnology, Santa Crus, Calif., USA) (see Examples 5 and 9). The secondary antibodies were goat anti-mouse and goat anti-rabbit (1:10,000) (Sigma®, Saint Louis, Mo., USA), for each antigen according to the manufacturer's instructions. […]
(§2) Intensity of the protein band was measured using an in-house program. […]
(§3) Possible miR-451 targets were evaluated using several open access software programs (e.g., Targetscan, PicTar, miRanda, miRDB). […] In the first screening, the suppression of ADAM10, CXCL16 and NAMPT protein level was analyzed in NALM-6 cells transiently expressing miR-451 mimic (SEQ ID NO: 2) and in cells transiently expressing scrambled-miR (universal sequence; negative control) by Western blot as described in Materials and Methods. […]

[2] = tested on: CXCL16; experiment: Western blot of CXCL16 in transfected NALM-6 cells; conditions: NALM-6 transient
From the text: as §1, §2, §3

[3] = tested on: NAMPT 3′-UTR; experiment: Luciferase reporter assay with NAMPT 3′-UTR; conditions: after transfection
From the text: To perform the reporter assay, the regulatory region of NAMPT is cloned […] of the Firefly luciferase gene in an expression vector, and the resulting recombinant vector, e.g., pLightSwitch 3′UTR, is transfected into cells along with an expression vector comprising the Renilla gene serving as reference. In accordance with some embodiments described herein, a target reporter vector containing the full-length wild type NAMPT 3′ untranslated region (3′-UTR) (pLightSwithch NAMPT 3′UTR) purchased from GeneCopoeia™ (Rockville, Md., USA) was co-transfected into NALM-6 cells along with Renilla luciferase vector as internal vector control. The NAMPT 3′-UTR contains miRNA response elements (MREs), to one of which miRNA-451 specifically binds. Twenty-four hours before transfection, NALM-6 cells were plated in 6 wells until 70% confluent. Two hundred (200) pmol miR-451 mimic, 200 pmol scrambled miR (both purchased from IDT®-Syntezza, Jerusalem, Israel) or 2 μg antagomiR-451 plasmid (GeneCopoeia™, Rockville, Md., USA) were transiently transfected into NALM-6 cells together with 2 μg pLightSwitch NAMPT 3′UTR and Renilla luciferase vector. […] Briefly, cells were collected, lysed to release all proteins (including the luciferase), luciferin was added along with all the necessary cofactors, and the enzymatic activity was quantitatively measured using a luminometer. […]

[4] = tested on: Nalm-6 cells; experiment: Annexin V-FITC apoptosis assay in Nalm-6 cells; conditions: NALM-6 cells, transient expression
From the text: Cells were stained with annexin V-fluorescein-5-isothiocyanate (FITC) conjugated antibody and propidium iodide (PI) using the Annexin V-FITC Apoptosis Detection Kit (ab14085, Abcam® Incorporated, Cambridge, Mass., USA) according to manufacturer's instructions (see, for example, https://www.abcam.com/ps/products/14/ab14085/documents/ab14085%20Annexin %20V%20FITC%20Apoptosis%20Detection%20Kit%20v4%20(website).pdf), and read on the flow cytometer. Annexin V Apoptosis Detection Kit is based on the observation that soon after initiating apoptosis, cells translocate the membrane phosphatidylserine (PS) from the inner face of the plasma membrane to the cell surface. Once on the cell surface, PS can be easily detected by staining with a fluorescent conjugate (e.g., FITC) of Annexin V, a protein that has a high affinity for PS. The one-step staining procedure takes only 10 minutes. When performing both Annexin V-FITC and PI staining, it is possible to differentiate apoptosis vs necrosis.
To measure the effect of NAD^+ depletion following FK866 treatment of Nalm-6 cells, apoptosis and viability were measured as described in Materials and Methods. Nalm-6 cells were treated for 48 hours with 1 nM FK866, and then apoptosis was measured using FACS.

“miR-451 mimic: a dsmiR-451 designed to copy or mimic the functionality of mature endogenous miR-451 upon transfection (AAACCGUUACCAUUACUGAGUU; double-stranded mimic, further chemistry not given here; listed as Homo sapiens)” was tested, and the “NAMPT protein expression levels compared to scrambled-miR” value [1] was “reduced”, the “CXCL16 protein level compared to scrambled-miR” value [2] was “only NAMPT protein expression levels were reduced” and the “relative luciferase activity of NAMPT 3′-UTR reporter decreased by” value [3] was 80%. The “effect on apoptosis rate” value [4] was “No effect”.
